Data reported in patent US20150324546A1, “METHOD FOR PREDICTING DRUG-TARGET INTERACTIONS AND USES FOR DRUG REPOSITIONING” (GEORGETOWN UNIVERSITY, priority 2012, published 2015).
Read-outs that look alike come from different tables or passages of the source. Blank lines part the entries; values can stand above or below the compound they belong to.

What was measured:
angiogenesis = details: previously demonstrated; cited from earlier work
[1] = test system: MDA-MB-231 invasive breast cancer cell line; test: Growth inhibition of MDA-MB-231 cells, MTS assay; format: cell-based; details: Homo sapiens, 48 hrs exposure
Procedure: MDA-MB-231 cells were seeded at 4000 cells/well in a 96 well plate. […] Three wells per concentration were treated 24 h post seeding, and the MTS assay was performed 48 h post treatment. The CellTiter96 Aqueous Non-Radioactive Cell Proliferation Assay kit (Promega) was used according to the manufacturer's recommendations. The absorbance values were measured at 490 nm and viable cells presented as a percentage of the absorbance of DMSO-only treated cells. IC50 and R^2 values were calculated with the Graphpad Prism software.

[2] = humans; cited from earlier work
[3] = rats; cited from earlier work
[4] = test system: Human umbilical vein endothelial cells (HUVEC); test: HUVEC angiogenesis (network formation on Matrigel) assay; format: cell-based; details: 24 h incubation, 1-100 μM, read-out: Inhibition of HUVEC network formation IC50
Procedure: Mebendazole was dissolved in 50 μl of DMSO and diluted with endothelial growth medium (EGM) to a final concentration of 1 mM. The highest concentration of DMSO is 0.1%. Human umbilical vein endothelial cells (HUVEC) were purchased from Cambrex Co. (East Rutherford, N.J., USA) and maintained in endothelial growth medium (EGM) supplemented with 2% FBS, 0.1% EGF, 0.1% hydrocortisone, 0.1% GA-1000, and 0.4% BBE. Morphogenesis assay on Matrigel was performed according to the manufacturer's instructions (Chemicon International). The ECMatrix™ kit consists of laminin, collagen type IV, heparan sulfate, proteoglycans, entactin, and nidogen. It also contains various growth factors (TGF-beta, FGF) and proteolytic enzymes (plasminogen, tPA, and MMPs) that are normally produced in EHS tumors. The incubation condition was optimized for maximal tube-formation as follows: 50 μl of EC Matrix™ was suitably diluted in a ratio 9:1 with 10× diluent buffer and used to coat the 96-well plate. The coated plates were incubated at 37° C. for 1 hr to allow the Matrix solution to solidify. HUVECs were cultured for 24 h in EGM with 2% FBS, trypsinized and re-suspended in the growth medium. […]
The efficiency of Mebendazole to inhibit the VEGFR2 kinase was measured by monitoring the ability of HUVECs to form networks.

VEGFR2 = VEGFR2 (Homo sapiens, UniProt P35968); details: read-out: VEGFR2 kinase activity IC50; 450 uM ATP, 60 minutes at room temperature, duplicate wells
VEGFR2, sequence (P35968 20-1356, species assumed): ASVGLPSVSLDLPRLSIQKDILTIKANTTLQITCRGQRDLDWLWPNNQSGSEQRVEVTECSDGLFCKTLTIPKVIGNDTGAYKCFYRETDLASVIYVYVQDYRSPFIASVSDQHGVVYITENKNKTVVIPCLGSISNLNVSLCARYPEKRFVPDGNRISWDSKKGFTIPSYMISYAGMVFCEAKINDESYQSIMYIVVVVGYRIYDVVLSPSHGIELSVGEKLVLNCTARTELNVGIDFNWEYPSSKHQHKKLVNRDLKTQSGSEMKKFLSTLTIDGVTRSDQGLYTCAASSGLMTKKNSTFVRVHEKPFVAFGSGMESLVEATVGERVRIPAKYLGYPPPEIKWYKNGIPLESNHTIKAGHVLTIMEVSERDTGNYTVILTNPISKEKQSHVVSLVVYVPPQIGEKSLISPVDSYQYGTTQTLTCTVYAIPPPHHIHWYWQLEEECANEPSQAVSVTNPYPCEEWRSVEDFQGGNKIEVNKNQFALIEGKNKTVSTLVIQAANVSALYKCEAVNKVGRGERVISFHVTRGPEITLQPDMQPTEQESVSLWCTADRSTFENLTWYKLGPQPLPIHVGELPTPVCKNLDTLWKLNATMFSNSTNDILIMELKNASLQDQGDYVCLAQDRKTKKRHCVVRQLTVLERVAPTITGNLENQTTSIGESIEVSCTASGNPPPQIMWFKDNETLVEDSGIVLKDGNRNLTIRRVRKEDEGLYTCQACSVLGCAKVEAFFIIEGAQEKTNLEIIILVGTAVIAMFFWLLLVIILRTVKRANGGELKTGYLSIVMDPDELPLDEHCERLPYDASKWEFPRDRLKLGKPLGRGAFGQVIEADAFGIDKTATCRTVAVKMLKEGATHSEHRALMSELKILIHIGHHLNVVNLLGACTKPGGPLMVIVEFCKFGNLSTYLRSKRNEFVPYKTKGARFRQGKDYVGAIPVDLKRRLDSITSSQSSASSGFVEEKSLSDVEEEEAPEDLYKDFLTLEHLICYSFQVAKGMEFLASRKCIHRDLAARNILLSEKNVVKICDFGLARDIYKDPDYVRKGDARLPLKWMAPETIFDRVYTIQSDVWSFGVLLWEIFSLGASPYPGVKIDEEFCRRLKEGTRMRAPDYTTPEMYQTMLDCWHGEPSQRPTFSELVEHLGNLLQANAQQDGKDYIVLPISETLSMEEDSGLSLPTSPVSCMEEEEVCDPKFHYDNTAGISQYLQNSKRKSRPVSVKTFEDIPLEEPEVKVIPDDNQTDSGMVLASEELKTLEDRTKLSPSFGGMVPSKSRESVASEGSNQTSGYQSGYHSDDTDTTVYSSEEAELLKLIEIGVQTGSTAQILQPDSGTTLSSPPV
Procedure: The VEGFR2 kinase assay was performed by using the Caliper LabChip 3000 and a 12-sipper LabChip. […] The off-chip incubation mobility-shift kinase assay uses a microfluidic chip to measure the conversion of a fluorescent peptide substrate to a phosphorylated product. The reaction mixture, from a microtiter well plate, is introduced through a capillary sipper onto the chip, where the nonphosphorylated substrate and phosphorylated product are separated by electrophoresis and detected via laser-induced fluorescence.
The assay reaction is: Fluorescein-peptide+ATP→fluorescein-phosphopeptide+ADP, which is measured by charge separation of phosphorylated product and unphosphorylated substrate. […] Following addition of ATP, samples were incubated for 60 minutes at room temperature and the reaction was terminated by the addition of stop buffer containing 100 mM HEPES (pH 7.5), 7 mM EDTA, 0.015% Brij-35, 4% DMSO. Phosphorylated product and unphosphorylated substrate were separated by charge using electrophoretic mobility shift. The product formed is compared to control wells to determine inhibition or enhancement of enzyme activity.
IC50 curves were generated using GraphPad 5 and a standard 4-parameter non-linear regression model (log [inhibitor] vs response−variable slope). Data points correspond to the averages of duplicate wells, and error bars represent the mean±replicate % activity.

Compound: CCCSc1ccc2nc(NC(=O)OC)[nH]c2c1 [Albendazole]
Inhibition of angiogenesis (angiogenesis): inhibit angiogenesis

Compound: Cc1ccc(-c2cc(C(F)(F)F)nn2-c2ccc(S(N)(=O)=O)cc2)cc1 [celecoxib]
IC50 [1]: 40 µM
Circulating levels [2]: 1 to 10 µM
Circulating levels [3]: 1 to 10 µM

IC50 (VEGFR2): 3.6 µM
Compound: COC(=O)Nc1nc2ccc(C(=O)c3ccccc3)cc2[nH]1 [Mebendazole]
IC50 [4]: 8.8 µM

IC50 [1]: 36 µM
Compound: Cc1ccc(C)c(-c2cc(C(F)(F)F)nn2-c2ccc(S(N)(=O)=O)cc2)c1 [dimethyl celecoxib]
